Some test systems named below: HCC-2998 colon; MDA-MB-231 breast; T-47D breast; MDA-N; SF-539 CNS; EKVX NSCLC; SW-620 colon; K-562 leukemia; SNB-75 CNS; OVCAR-5 ovarian; SK-MEL-28 melanoma; DU-145 prostate; M14 melanoma; SN12C renal; NCI/ADR-RES ovarian; MCF7 breast; LOX IMVI melanoma; 786-0 renal.
What all share (test): NCI tumour cell line growth inhibition, 48 h

Each structure is given as a SMILES string.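 In this assay, cells in 96-well plates receive the compound at five concentrations for 48 hours. Endpoints are linearly interpolated between the surrounding concentrations. TGI is the concentration that stops growth completely.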

In the case of `C=CCn1c(=O)c(C)cn(/C(=C/C(=O)OCC)C(=O)OCC)c1=O`, the TGI in the assay on HCC-2998 colon was 33.5 µM; in the assay on MDA-MB-231 breast, 29.3 µM; in the assay with T-47D breast it was 30.7 µM; with MDA-N it was 33.7 µM; in the assay with SF-539 CNS it was 63.2 µM; in the assay with EKVX NSCLC, 28.7 µM. Also, the TGI is 15.5 µM in the assay on SW-620 colon; 17.1 µM in the assay on K-562 leukemia; 25.6 µM in the assay on SNB-75 CNS; 30.2 µM with OVCAR-5 ovarian; 32.3 µM in the assay with SK-MEL-28 melanoma; over 74.3 µM with DU-145 prostate. Besides, the TGI in the assay on M14 melanoma worked out at 28.1 µM; with SN12C renal, 29.7 µM; with NCI/ADR-RES ovarian it was 55.5 µM; with MCF7 breast, 18.9 µM; in the assay with LOX IMVI melanoma, 21.3 µM; in the assay on 786-0 renal, 19.2 µM.
Take `CO[C@H]1O[C@@H]2CO[C@@H](c3ccccc3)O[C@H]2C[C@]12CCC/C=C\CO2`: the TGI with HCC-2998 colon turned out to be 54.5 µM; with MDA-MB-231 breast, 39.3 µM; with T-47D breast, 59.6 µM; in the assay on MDA-N, 26.9 µM; with SF-539 CNS it was 29.1 µM; in the assay with EKVX NSCLC, 25.8 µM. Moreover, the TGI in the assay with SW-620 colon is 61.1 µM; in the assay on K-562 leukemia it was 35.7 µM; in the assay with SNB-75 CNS, 61.8 µM; with OVCAR-5 ovarian it was over 75 µM; in the assay with SK-MEL-28 melanoma, 26.6 µM; in the assay on DU-145 prostate it was over 75 µM. The TGI worked out at 41.2 µM in the assay on M14 melanoma; 29.7 µM with SN12C renal; 73.6 µM with NCI/ADR-RES ovarian; 35.7 µM in the assay on MCF7 breast; 22.9 µM in the assay on LOX IMVI melanoma; 26.2 µM with 786-0 renal.
In the case of `CC/C(Cl)=N\OC(=O)Nc1ccc(C#N)cc1`, the TGI in the assay on HCC-2998 colon was 30.1 µM; in the assay on MDA-MB-231 breast, 29.1 µM; with T-47D breast, 30.7 µM; in the assay with MDA-N it was 30 µM; in the assay on SF-539 CNS, 30.5 µM; in the assay on EKVX NSCLC, 26.3 µM. Moreover, the TGI in the assay with SW-620 colon is 11.7 µM; with K-562 leukemia it was 4.28 µM; with SNB-75 CNS, 28.2 µM; in the assay with OVCAR-5 ovarian, 29.5 µM; in the assay on SK-MEL-28 melanoma, 33.8 µM; in the assay on DU-145 prostate, 29.6 µM. The TGI with M14 melanoma was determined as 24.8 µM; with SN12C renal, 30.3 µM; with NCI/ADR-RES ovarian, 18.3 µM; in the assay with MCF7 breast, 29.6 µM; with LOX IMVI melanoma, 15.9 µM; in the assay on 786-0 renal, 23.5 µM.
With `Clc1nc2c(-c3cccs3)ncnc2n1Cc1ccccc1`, the TGI in the assay with HCC-2998 colon is 9.84 µM; in the assay on MDA-MB-231 breast it was over 81.5 µM; in the assay with T-47D breast, over 91.5 µM; in the assay with MDA-N, over 100 µM; in the assay with SF-539 CNS, over 100 µM; in the assay on EKVX NSCLC it was 55.4 µM. The TGI with SW-620 colon was over 70.5 µM; in the assay with K-562 leukemia it was over 100 µM; in the assay with SNB-75 CNS, 58.7 µM; in the assay on OVCAR-5 ovarian, over 100 µM; with SK-MEL-28 melanoma, over 100 µM; in the assay with DU-145 prostate, 6.18 µM. The TGI in the assay on M14 melanoma is over 100 µM; in the assay with SN12C renal, over 100 µM; in the assay on NCI/ADR-RES ovarian, over 100 µM; in the assay on MCF7 breast, over 100 µM; with LOX IMVI melanoma it was over 100 µM; in the assay on 786-0 renal, 59.5 µM.
Turning to `O=C(C1OC1c1ccc([N+](=O)[O-])cc1)C12CC3CC(CC(C3)C1)C2` (stereo not given), the TGI was 44.4 µM in the assay with HCC-2998 colon; 34.8 µM in the assay with MDA-MB-231 breast; 37.3 µM in the assay on T-47D breast; 24.3 µM with MDA-N; 28.9 µM in the assay on SF-539 CNS; 37.4 µM in the assay on EKVX NSCLC. Besides, the TGI in the assay with SW-620 colon was determined as 56 µM; in the assay with K-562 leukemia, 33.5 µM; with SNB-75 CNS, 39.4 µM; in the assay with OVCAR-5 ovarian, 39.9 µM; in the assay on SK-MEL-28 melanoma it was 33.4 µM; with DU-145 prostate, 46.2 µM. Further, the TGI came to 30.1 µM with M14 melanoma; 29.7 µM in the assay on SN12C renal; 39.2 µM in the assay on NCI/ADR-RES ovarian; 33.1 µM in the assay with MCF7 breast; 4.19 µM in the assay with LOX IMVI melanoma; 22.1 µM with 786-0 renal.
For `NC(CCCCNc1ccn(C2OC(CO)C(O)C2O)c(=O)n1)C(=O)O` (stereo not given), the TGI in the assay on HCC-2998 colon, with MDA-MB-231 breast, in the assay with T-47D breast, with MDA-N, in the assay with SF-539 CNS and in the assay on EKVX NSCLC was over 100 µM each time. Further, the TGI in the assay on SW-620 colon, in the assay on K-562 leukemia, in the assay on SNB-75 CNS, with OVCAR-5 ovarian, in the assay on SK-MEL-28 melanoma and with DU-145 prostate was over 100 µM in each case. Also, the TGI with M14 melanoma, in the assay on SN12C renal, with NCI/ADR-RES ovarian, in the assay on MCF7 breast, in the assay with LOX IMVI melanoma and in the assay on 786-0 renal was over 100 µM in each case.
Consider `N#Cc1c(NC(=S)NCc2ccccc2)sc2c1CCN(N1CCc3c(sc(NC(=S)NCc4ccccc4)c3C#N)C1)C2`, for which the TGI with HCC-2998 colon, in the assay with MDA-MB-231 breast, in the assay on T-47D breast, in the assay with MDA-N, in the assay on SF-539 CNS and in the assay with EKVX NSCLC was over 100 µM throughout. The TGI with SW-620 colon, in the assay on K-562 leukemia, in the assay on SNB-75 CNS, with OVCAR-5 ovarian, in the assay on SK-MEL-28 melanoma and with DU-145 prostate was over 100 µM in each case. Moreover, the TGI with M14 melanoma, in the assay on SN12C renal, with NCI/ADR-RES ovarian, with MCF7 breast, in the assay with LOX IMVI melanoma and in the assay on 786-0 renal was over 100 µM each time.
On to `C[C@@H]1CCC2[C@@H](C)C(=O)O[C@@H]3C4C[C@@H]1[C@@]23OO[C@@]4(C)O` (stereo not given in full), for which the TGI in the assay on HCC-2998 colon, in the assay with MDA-MB-231 breast, in the assay on T-47D breast, with MDA-N, with SF-539 CNS and with EKVX NSCLC was over 100 µM each time. The TGI in the assay with SW-620 colon, with K-562 leukemia, in the assay with SNB-75 CNS, in the assay on OVCAR-5 ovarian, in the assay on SK-MEL-28 melanoma and with DU-145 prostate was over 100 µM in each case. The TGI with M14 melanoma was over 100 µM; in the assay on SN12C renal it was over 100 µM; with NCI/ADR-RES ovarian, over 100 µM; in the assay on MCF7 breast, over 100 µM; with LOX IMVI melanoma it was 62.7 µM; in the assay with 786-0 renal, over 100 µM.
As for `O=[N+]([O-])C1(C2([N+](=O)[O-])CCCC2)CCCC1`, the TGI in the assay on HCC-2998 colon, with MDA-MB-231 breast, in the assay with T-47D breast, in the assay on MDA-N, in the assay on SF-539 CNS and in the assay with EKVX NSCLC was over 100 µM in each case. Further, the TGI with SW-620 colon, in the assay with K-562 leukemia, in the assay on SNB-75 CNS, in the assay on OVCAR-5 ovarian, in the assay on SK-MEL-28 melanoma and with DU-145 prostate was over 100 µM each time. Moreover, the TGI in the assay on M14 melanoma, in the assay with SN12C renal, in the assay with NCI/ADR-RES ovarian, in the assay with MCF7 breast, with LOX IMVI melanoma and in the assay with 786-0 renal was over 100 µM in each case.
Regarding `Nc1c(C(=O)c2ccccc2)[nH]c(NCc2ccccc2)c1C(=S)Nc1ccccc1`, the TGI with HCC-2998 colon, in the assay with MDA-MB-231 breast, in the assay with T-47D breast, in the assay on MDA-N, in the assay on SF-539 CNS and with EKVX NSCLC was over 100 µM each time. The TGI with SW-620 colon, in the assay on K-562 leukemia, with SNB-75 CNS, in the assay on OVCAR-5 ovarian, in the assay with SK-MEL-28 melanoma and in the assay with DU-145 prostate was over 100 µM in each case. For the same compound, the TGI with M14 melanoma, with SN12C renal, in the assay on NCI/ADR-RES ovarian, in the assay with MCF7 breast, with LOX IMVI melanoma and in the assay with 786-0 renal was over 100 µM in each case.
